Measured values published in patent US20150342847A1, “NOVEL DERIVATIVES OF SINAPINIC ACID AND THE COSMETIC OR PHARMACEUTICAL USES THEREOF” (BASF Beauty Care Solutions France SAS, priority 2012, published 2015).

Legend:
[1] = DPPH radical scavenger test (acellular); conditions: 30 minutes
Excerpt: Study of the radical scavenger activity of the hydroxytyrosol dihydrosinapate of the invention of formula (IIa) and of the prior-art ferulic acid derivative in an acellular in vitro model, using DPPH.
1,1-Diphenyl-2-picrylhydrazyl, owing to its paramagnetic structure, is able to accept an electron or a hydrogen radical in order to become a stable diamagnetic molecule.
The addition of a compound which provides electrons gives rise to decoloring of the 1,1-diphenyl-2-picrylhydrazyl in a manner proportional to the number of electrons accepted by the radical, and this decoloration can be monitored by measuring the absorbance at 530 nm (OD530).
[…] At the end of the incubation, the radical scavenger activity of the compound under test is evaluated by measuring the absorbance of the solution at 530 nm.
The results are presented as % inhibition of the DPPH radical, in Table 3a).
The radical scavenger activity of the test product is calculated as a percentage, according to the following formula:
100−((OD530 in the presence of the compound under test/OD530 in the absence of compound)×100)

[2] = TBARS test, lipid peroxidation of UVB-irradiated liposomal suspension; conditions: UVB 2 hours
Protocol: Study of the radical scavenger activity of the hydroxytyrosol dihydrosinapate of the invention of formula (IIa) and of the prior-art ferulic acid derivative by the TBARS test.
Two identical 96-well plates are produced according to a defined plate plan. 50 μL of a sample mixture prepared by diluting a solution of a test compound or of a negative control (vehicle medium without test compound) or of a positive control (D-L-alpha-tocopherol) to 1/10 in a liposomal suspension are distributed per well, in quadruplicate. One of the two plates is irradiated with UVB for 2 hours. The other plate, serving as a control, is incubated in the absence of light and at ambient temperature for 2 hours.
At the end of irradiation, an amount of 100 μL of 20% trichloroacetic acid solution was added per well, followed by an amount of 34 μL of 1% thiobarbituric acid solution. The plates are then incubated at 105° C. for 25 minutes.
The contents of each well are centrifuged at 5700 rpm for 5 minutes, and then an amount of 100 μL of supernatant was deposited in new plates, according to the same plan, and the absorbance was read off at 530 nm.
The positive experimental control was D-L-alpha-tocopherol, at a concentration of 1%, for which a percentage inhibition of 80% was obtained.

[3] = test system: keratinocytes; test: Cytotoxicity, MTT cell viability on keratinocytes; type: cell-based; conditions: for Percentage cell viability, Mean: MTT
Protocol: Study of cell viability following application of the hydroxytyrosol dihydrosinapate of the invention of formula (IIa) to keratinocytes or melanocytes.
The cells (keratinocytes or melanocytes) were cultured in a 96-well plate at 37° C. under 5% CO2 in an appropriate medium until confluence. The medium was withdrawn and then an amount of 200 μL of a 0.5 mg/mL MTT solution was added. The plates were then incubated at 37° C. for 3 hours, after which the MTT solution was withdrawn from each well and replaced with DMSO. The plates were agitated for 15 minutes, and the optical density was measured at 550 nm.
The negative cytotoxicity control is PBS. The positive cytotoxicity control is 0.25% SDS. 0.1% DMSO was used as control.

COc1cc(CCC(=O)OCCc2ccc(O)c(O)c2)cc(OC)c1O [Hydroxytyrosol dihydrosinapate (IIa), hydroxytyrosol dihydrosinapate]
% inhibition of the DPPH radical ([1]; 1 μM): 10.7 +/− 0.59% | % inhibition of the DPPH radical ([1]; 5 μM): 59.68 +/− 0.89% | % inhibition of the DPPH radical ([1]; 10 μM): 82.01 +/− 1.05% | % inhibition of the DPPH radical ([1]; 30 μM): 86.68 +/− 0.44% | % inhibition of the DPPH radical ([1]; 50 μM): 88.78 +/− 0.49% | % inhibition of the DPPH radical ([1]; 100 μM): 88.28 +/− 0.56% | % inhibition of the DPPH radical ([1]; 1000 μM): 89.14 +/− 0.40% | % inhibition of lipid peroxidation ([2]; 1 μM after dilution to 1/10th in the liposomal suspension): −10.58% | % inhibition of lipid peroxidation ([2]; 5 μM after dilution to 1/10th in the liposomal suspension): 8.21% | % inhibition of lipid peroxidation ([2]; 30 μM after dilution to 1/10th in the liposomal suspension): 7.14% | % inhibition of lipid peroxidation ([2]; 50 μM after dilution to 1/10th in the liposomal suspension): 19.12% | % inhibition of lipid peroxidation ([2]; 100 μM after dilution to 1/10th in the liposomal suspension): 41.95% | % inhibition of lipid peroxidation ([2]; 1000 μM after dilution to 1/10th in the liposomal suspension): 77.04% | Percentage cell viability, Mean ([3]; 1 μM): 105.8% | Percentage cell viability, Mean ([3]; 10 μM): 115.2% | Percentage cell viability, Mean ([3]; 100 μM): 75.7% | cytotoxicity (in words) ([3]; 10^−6, 10^−5 and 10^−4 M, tolerated threshold 75% viability): not cytotoxic
